One block for each molecule: values may come before it.
How the values were obtained:
[1] = target: T1, His6-CRBN/DDB1 and GST-BRD4(BD2) (Homo sapiens, UniProt O60885+Q96SW2); assay: AlphaScreen ternary complex formation, His6-CRBN/DDB1 and GST-BRD4(BD2); type: binding
T1 construct: His6-CRBN/DDB1 complex and GST-BRD4 BD2 domain; purchased Epicypher (GST-BRD4(BD2)); Bristol Myers Squibb gift (His6-CRBN/DDB1) 15-0013
Procedure: AlphaScreen was performed according to the previously reported method.7 Briefly, for AlphaScreen of His6-CRBN/DDB1, GST-IKZF1 and (S)-, (R)- or rac-lenalidomide-d3, a solution of 100 nM His6-CRBN/DDB1 and 200 nM GST-IKZF1 in 1x AlphaScreen buffer (5 µL) and a solution of the indicated compound in 1x AlphaScreen buffer (5 µL) were added to a each well of a 384-well Optiplate and incubated at 24 °C for 1 h. To each well, a solution of 5 µL of 60 µg/mL AlphaScreen Glutathione Donor beads, 60 µg/mL AlphaLISA Nickel Chelate Donor beads in 1× AlphaScreen buffer was added to each well and incubated at 24 °C for 1 h in the dark and the plate was analyzed. For AlphaScreen of His6-CRBN/DDB1, GST-BRD4(BD2) and bivalent degraders, a solution of 750 nM His-CRBN/DDB1 and 375 nM GST-BRD4(BD2) in 1x AlphaScreen buffer (5 µL) and a solution of the indicated compound in 1x AlphaScreen buffer (5 µL) were added to a each well of a 384-well Optiplate and incubated at 24 °C for 1 h. To each well, a solution of 5 µL of 60 µg/mL AlphaScreen Glutathione Donor beads, 60 µg/mL AlphaLISA Nickel Chelate Donor beads in 1× AlphaScreen buffer was added to each well and incubated at 24 °C for 1 h in the dark and the plate was analyzed. […]
heated at 95 °C for 5 min. 10 µL of the immunoprecipitated sample was load on a 12% Tris-glycine gel and probe-labeling was visualized by fluorescence signal. Separately, 10 µL of the immunoprecipitated sample and the “input” sample were load on a 12% Tris-glycine gel and analyzed by Western blotting. […]
Parental cell lines were stably infected with a unique 24-nucleotide DNA barcode via lentiviral transduction and blasticidin selection. […] Passing barcoded lines were then pooled (20-25 cell lines per pool) based on doubling time and frozen in assay-ready vials.
Test compounds were added to 384-well plates and run at 8 pt. dose with 3-fold dilutions, the highest concentration of 25 µM in triplicate. These assay ready plates were then seeded with […]

[2] = target: His6-CRBN/DDB1 (Homo sapiens, UniProt Q96SW2); assay: TR-FRET ligand displacement assay (Thal-FITC tracer) with His6-CRBN/DDB1
[3] = system: MOLM13 cells; assay: Global quantitative proteomics of protein levels; type: cell-based; details: 4 h; for FC [fold change abundances (rac/DMSO)] / logFC (rac vs DMSO) / FC [fold change abundances (R/DMSO)] / logFC (R vs DMSO): MOLM13, 100 nM
Procedure: Global Quantitative Proteomics Sample Preparation and Mass Spectrometry Acquisition Global Quantitative Proteomics was performed according to the previously reported method.7 Briefly, 1.0×10^6 MOLM13 cells were seeded in 12-well plates and small molecules of interest were added, and cells were incubated at 37 °C, 5% CO2 for 4 hours. Cells were collected […]
15 sec in total, 11% amplitude) in lysis buffer (5% SDS in 50 mM triethylammonium bicarbonate (TEAB), pH 7.55), and cleared by centrifugation (21,000 × g, 4 °C, 10 min). After protein quantification by BCA protein assay, the lysates were diluted to 1.5 mg/mL with the lysis buffer. The diluted lysates (60 μL) were reduced by addition of dithiothreitol (20 mM) at 24 °C for 30 min then alkylated by addition of iodoacetamide (40 mM) and incubation in the dark at 24 °C for 30 min.

[4] = target: T2, thalidomide-binding domain of CRBN (CULT) (Homo sapiens, UniProt Q96SW2); assay: Photoaffinity labeling binding site mapping with i-pLen probes by LC-MS/MS; details: equimolar mixture of i-pLen probes, photolysis after 30 min at 24 °C
T2 construct: made in house
T2 sequence (Q96SW2 318-426 limits assumed): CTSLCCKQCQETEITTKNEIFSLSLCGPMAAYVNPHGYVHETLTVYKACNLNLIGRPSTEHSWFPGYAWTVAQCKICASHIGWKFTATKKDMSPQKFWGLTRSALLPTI
Procedure: (§1) (v21.1.1) and Adobe Illustrator (v24.1).
(§2) MM.1S, MOLM13, Jurkat, and BxPC3 […]
(§3) μg/mL), and 10% (v/v) FBS.
(§4) Western Blotting Procedures […]
(§5) lysates and the concentration was adjusted using lysis buffer. 5× SDS-PAGE loading buffer […]
(§6) Protein samples (8–15 μL per lane) were […]
(§7) precast gels for medium molecular weight proteins. Gels were transferred to membranes using […]
(§8) for high molecular weight proteins. Membranes were stained with Ponceau S solution to visualize transfer and protein loading.
(§9) Degradation assay by flow cytometry […]
(§10) resuspension in DMEM +/– without phenol red. For IKZF1 degradation assay, propidium […]
(§11) equipped with a high throughput sampler. […]
(§12) using the BD FACSDiva software v9.1. For each experimental condition, the arithmetic mean […]
(§13) comparing compound treatment to DMSO control.
(§14) Structural proteomics mass spectrometry sample preparation […]
addition of a pre-mixed cocktail (final concentrations: 100 μM cleavable biotin picolyl-azide probe, 250 μM THPTA, 250 μM CuSO4, 2.5 mM freshly dissolved sodium ascorbate) and incubated for 1.5 h at 25 °C with inversion. After excess reagent was removed by acetone precipitation, the protein pellet was resuspended in 100 mM TEAB (50 μL, pH=8.5) and 100 mM DTT/PBS (1.5 μL, final concentration 3 mM) was added before incubating for 30 min at 25 °C with inversion. […]
The raw data were analyzed using Proteome Discoverer 2.4.1.15. […]

[5] = target: T3, BRD4(BD1)-GFP in HEK293T cells (Homo sapiens, UniProt O60885+Q96SW2); assay: Degradation assay by flow cytometry, BRD4(BD1)-GFP; type: cell-based; details: 76 pM–20 μM, 4 h
T3 construct: HEK293T cells stably expressing BRD4(BD1) fused to GFP
Procedure: as §1, §2, §3, §4, §5, §6, §7, §8, §9, §10, §11, §12, §13, §14
sample throughout the assay duration. The same analysis was also applied to the (S)- […]
dependent activity, we adjusted the dose-response curves accordingly. Because dose- […]
within the error margins of the original curve. […]
squares F-test. This analysis determined whether there was a statistically significant […]
derived (S)-enantiomer. If there is a statistically significant difference, the null […]
Cells were treated with 1 μM MLN4924
The cells were collected and lysed in […]
centrifugation (21,000 × g, 4 °C, 10 min). […]

[6] = KD, competitive TR-FRET, His6-CRBN/DDB1
[7] = Protein CRBN, from IC50 with Correction Factor 1.43

SMILES: C#CCCC1(CC(=O)Nc2ccc3c(c2)C[15N]([C@@H]2CCC(=O)NC2=O)C3=O)N=N1 [(R)-i-pLen]
CRBN residue labeled by the probe [4]: Tyr355

SMILES: C#CCCC1(CC(=O)Nc2ccc3c(c2)CN([C@H]2CCC(=O)[15NH]C2=O)C3=O)N=N1 [(S)-i-pLen]
CRBN residue labeled by the probe [4]: His353

SMILES: [2H]C1([2H])C[C@@]([2H])(N2Cc3cc(NC(=O)CCCCCCCCNC(=O)C[C@@H]4N=C(c5ccc(Cl)cc5)c5c(sc(C)c5C)-n5c(C)nnc54)ccc3C2=O)C(=O)NC1=O [JQ1-(R)-Len-d3]
degradation of BRD4(BD1)-GFP [5]: limited activity | Kd [2, 6]: 79 nM | BRD4 protein levels by global quantitative proteomics ([3]; MOLM13 cells, 100 nM): unperturbed | FC [fold change abundances (R/DMSO)] ([3]; protein ARID1A): 3.475 | logFC (R vs DMSO) ([3]; protein ARID1A): 1.826 | FC [fold change abundances (R/DMSO)] ([3]; protein CAB39): 0.9606 | logFC (R vs DMSO) ([3]; protein CAB39): 0.2309 | FC [fold change abundances (R/DMSO)] ([3]; protein FLII): 1.596 | logFC (R vs DMSO) ([3]; protein FLII): 0.7992 | FC [fold change abundances (R/DMSO)] ([3]; protein FUBP3): 1.064 | logFC (R vs DMSO) ([3]; protein FUBP3): 0.3358 | FC [fold change abundances (R/DMSO)] ([3]; protein TPD52): 1.273 | logFC (R vs DMSO) ([3]; protein TPD52): 0.5322

Now from value to molecule, other results behind:

ternary complex formation between His6-CRBN/DDB1 and GST-BRD4(BD2) [1]: much less than JQ1-(S)-Len-d3 | Kd [2, 6]: < 2 nM
SMILES: [2H]C1([2H])CC([2H])(N2Cc3cc(NC(=O)CCCCCCCCNC(=O)C[C@@H]4N=C(c5ccc(Cl)cc5)c5c(sc(C)c5C)-n5c(C)nnc54)ccc3C2=O)C(=O)NC1=O (mixture of isomers) [JQ1-rac-Len-d3]
FC [fold change abundances (rac/DMSO)] ([3]; protein AHCY): 0.9686 | logFC (rac vs DMSO) ([3]; protein AHCY): 0.2393 | FC [fold change abundances (rac/DMSO)] ([3]; protein GNB4): -1.362 | logFC (rac vs DMSO) ([3]; protein GNB4): -0.6098 | FC [fold change abundances (rac/DMSO)] ([3]; protein NUP88): -1.247 | logFC (rac vs DMSO) ([3]; protein NUP88): -0.5083 | FC [fold change abundances (rac/DMSO)] ([3]; protein SATB2): -1.143 | logFC (rac vs DMSO) ([3]; protein SATB2): -0.4122 | FC [fold change abundances (rac/DMSO)] ([3]; protein TUBB4B): 1.098 | logFC (rac vs DMSO) ([3]; protein TUBB4B): 0.3694

ternary complex formation between His6-CRBN/DDB1 and GST-BRD4(BD2) [1]: minimally promoted the ternary complex | pIC50 (M) ([2]; Protein CRBN, Thalidomide-FITC tracer 50 nM): 6.08 M | IC50 ([2]; Protein CRBN, Thalidomide-FITC tracer 50 nM, protein […]): 840 nM | Kd [2, 7]: 589 nM | pKD (M) [2, 7]: 6.23 M
SMILES: Cc1sc2c(c1C)C(c1ccc(Cl)cc1)=N[C@@H](CC(=O)NCCCCCCCCC(=O)N[C@@H](Cc1ccccc1)C(=O)N[C@@H]1CCC(=O)NC1=O)c1nnc(C)n1-2 [JQ1-FepicQ]

From article PMC12117711, “The contribution of cyclic imide stereoisomers on cereblon-dependent activity†” (Chemical Science, 2025)
